Assay results: patent US10231954B2, “Neurodegenerative therapies” (LYTIX BIOPHARMA AS, priority 2014, dated 2019)
Like-named read-outs stand apart in the source and are kept apart here.

Key:
Type in all cases: biochemical
[1] = biological target: PKBa (Homo sapiens, UniProt P31749); assay: Kinase profiling PKBa; conditions: for remaining activity at 100 µM: read-out: residual kinase activity, PKBa
Source text: (§1) Any value less that 25 is considered to be highly significant inhibition.

[2] = biological target: PKCγ (Homo sapiens, UniProt P05129); assay: Kinase profiling PKCγ; conditions: for remaining activity at 100 µM: read-out: residual kinase activity, PKCγ
Source text: as §1

[3] = biological target: STK33 (Homo sapiens, UniProt Q9BYT3); assay: Kinase profiling STK33; conditions: for remaining activity at 100 µM: read-out: residual kinase activity, STK33
Source text: as §1

[4] = biological target: MSK1 (Homo sapiens, UniProt O75582); assay: Kinase profiling MSK1; conditions: for remaining activity at 100 µM: read-out: residual kinase activity, MSK1
Source text: as §1

[5] = biological target: CAMKKb (Homo sapiens, UniProt Q96RR4); assay: Kinase profiling CAMKKb; conditions: for remaining activity at 100 µM: read-out: residual kinase activity, CAMKKb
Source text: as §1

[6] = biological target: T1, LKB1 (Homo sapiens, UniProt Q15831); assay: Kinase profiling LKB1; conditions: for remaining activity at 100 µM: read-out: residual kinase activity, LKB1
T1 sequence (Q15831 1-433): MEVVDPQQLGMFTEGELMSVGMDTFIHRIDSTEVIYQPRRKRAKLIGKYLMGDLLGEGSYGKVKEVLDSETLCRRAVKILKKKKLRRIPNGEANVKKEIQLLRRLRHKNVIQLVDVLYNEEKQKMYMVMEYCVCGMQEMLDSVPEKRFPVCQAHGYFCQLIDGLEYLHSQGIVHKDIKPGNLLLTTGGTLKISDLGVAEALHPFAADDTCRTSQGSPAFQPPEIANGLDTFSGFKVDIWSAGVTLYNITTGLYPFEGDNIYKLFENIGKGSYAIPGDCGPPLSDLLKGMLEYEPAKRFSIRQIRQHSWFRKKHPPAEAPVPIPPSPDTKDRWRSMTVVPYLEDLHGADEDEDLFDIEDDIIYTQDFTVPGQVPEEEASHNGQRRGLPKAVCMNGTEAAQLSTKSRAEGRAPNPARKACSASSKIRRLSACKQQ
T1 sequence (Q7RTN6 1-431 partner): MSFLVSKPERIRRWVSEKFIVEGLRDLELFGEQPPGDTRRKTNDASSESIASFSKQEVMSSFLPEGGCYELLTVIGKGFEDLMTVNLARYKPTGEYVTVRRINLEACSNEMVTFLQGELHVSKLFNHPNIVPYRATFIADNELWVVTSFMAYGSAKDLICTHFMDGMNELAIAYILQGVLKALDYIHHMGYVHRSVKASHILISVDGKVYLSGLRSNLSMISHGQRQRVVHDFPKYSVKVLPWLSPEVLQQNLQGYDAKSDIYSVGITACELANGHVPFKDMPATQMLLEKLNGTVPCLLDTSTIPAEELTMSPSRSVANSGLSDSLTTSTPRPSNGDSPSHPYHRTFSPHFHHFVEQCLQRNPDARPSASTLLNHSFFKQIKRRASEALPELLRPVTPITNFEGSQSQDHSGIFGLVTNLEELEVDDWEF
T1 sequence (Q9Y376 1-341 partner): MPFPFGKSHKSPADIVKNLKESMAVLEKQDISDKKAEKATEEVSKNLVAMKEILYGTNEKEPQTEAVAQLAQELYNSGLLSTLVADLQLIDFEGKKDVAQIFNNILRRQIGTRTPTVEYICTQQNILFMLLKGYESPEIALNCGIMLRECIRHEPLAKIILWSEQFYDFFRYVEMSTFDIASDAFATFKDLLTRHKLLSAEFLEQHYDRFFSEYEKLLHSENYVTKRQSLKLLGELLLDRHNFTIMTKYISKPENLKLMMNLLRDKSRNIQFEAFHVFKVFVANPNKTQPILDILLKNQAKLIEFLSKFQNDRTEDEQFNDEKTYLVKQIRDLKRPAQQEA
Source text: as §1

[7] = biological target: T2, TBK1 (Homo sapiens, UniProt Q9UHD2); assay: Kinase profiling TBK1; conditions: for remaining activity at 100 µM: read-out: residual kinase activity, TBK1
T2 sequence (Q9UHD2 1-729): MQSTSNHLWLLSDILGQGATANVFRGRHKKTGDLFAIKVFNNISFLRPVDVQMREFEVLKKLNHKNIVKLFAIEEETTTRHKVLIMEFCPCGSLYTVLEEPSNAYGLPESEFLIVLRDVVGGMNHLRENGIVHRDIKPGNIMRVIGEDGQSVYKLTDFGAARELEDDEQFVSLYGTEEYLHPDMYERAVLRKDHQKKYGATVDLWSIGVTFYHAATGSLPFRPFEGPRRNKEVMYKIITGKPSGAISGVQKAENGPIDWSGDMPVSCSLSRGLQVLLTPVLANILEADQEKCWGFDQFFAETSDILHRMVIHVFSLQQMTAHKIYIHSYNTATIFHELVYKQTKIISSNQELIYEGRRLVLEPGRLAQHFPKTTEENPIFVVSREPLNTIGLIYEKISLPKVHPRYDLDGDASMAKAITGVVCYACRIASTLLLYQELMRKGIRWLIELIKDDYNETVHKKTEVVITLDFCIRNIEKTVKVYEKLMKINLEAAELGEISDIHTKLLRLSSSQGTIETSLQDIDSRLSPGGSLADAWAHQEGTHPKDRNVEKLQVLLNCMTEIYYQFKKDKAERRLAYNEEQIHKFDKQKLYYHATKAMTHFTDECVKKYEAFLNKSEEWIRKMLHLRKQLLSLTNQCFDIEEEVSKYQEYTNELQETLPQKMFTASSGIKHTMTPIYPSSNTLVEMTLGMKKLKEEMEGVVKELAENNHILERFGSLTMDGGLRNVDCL
Source text: as §1

[8] = biological target: SRPK1 (Homo sapiens, UniProt Q96SB4); assay: Kinase profiling SRPK1; conditions: for remaining activity at 100 µM: read-out: residual kinase activity, SRPK1
Source text: as §1

[9] = biological target: EF2K (Homo sapiens, UniProt O00418); assay: Kinase profiling EF2K; conditions: for remaining activity at 100 µM: read-out: residual kinase activity, EF2K
Source text: as §1

[10] = biological target: T3, MST2 (Homo sapiens, UniProt Q13188); assay: Kinase profiling MST2; conditions: for remaining activity at 100 µM: read-out: residual kinase activity, MST2
T3 sequence (Q13188 1-491): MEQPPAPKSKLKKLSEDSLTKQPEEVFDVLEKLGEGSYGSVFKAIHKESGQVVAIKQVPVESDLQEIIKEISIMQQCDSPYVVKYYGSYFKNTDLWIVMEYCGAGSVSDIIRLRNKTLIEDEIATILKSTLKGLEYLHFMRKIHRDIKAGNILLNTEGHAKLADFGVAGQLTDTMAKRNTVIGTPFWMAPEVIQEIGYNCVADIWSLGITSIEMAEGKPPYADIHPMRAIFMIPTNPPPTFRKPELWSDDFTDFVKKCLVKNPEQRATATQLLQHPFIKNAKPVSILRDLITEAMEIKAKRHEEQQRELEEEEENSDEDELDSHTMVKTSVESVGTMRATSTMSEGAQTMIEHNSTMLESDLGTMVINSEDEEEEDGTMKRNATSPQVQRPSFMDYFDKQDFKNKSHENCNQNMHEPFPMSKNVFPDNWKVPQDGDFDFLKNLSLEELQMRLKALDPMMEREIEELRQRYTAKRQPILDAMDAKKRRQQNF
Source text: as §1

[11] = biological target: SYK (Homo sapiens, UniProt P43405); assay: Kinase profiling SYK; conditions: for remaining activity at 100 µM: read-out: residual kinase activity, SYK
Source text: as §1

[12] = 100 micromolar inhibitor concentration, 100 is no change
[13] = 100 micromolar inhibitor, 100 = no change

Sequence of CAMKKb (Q96RR4 whole entry, species assumed): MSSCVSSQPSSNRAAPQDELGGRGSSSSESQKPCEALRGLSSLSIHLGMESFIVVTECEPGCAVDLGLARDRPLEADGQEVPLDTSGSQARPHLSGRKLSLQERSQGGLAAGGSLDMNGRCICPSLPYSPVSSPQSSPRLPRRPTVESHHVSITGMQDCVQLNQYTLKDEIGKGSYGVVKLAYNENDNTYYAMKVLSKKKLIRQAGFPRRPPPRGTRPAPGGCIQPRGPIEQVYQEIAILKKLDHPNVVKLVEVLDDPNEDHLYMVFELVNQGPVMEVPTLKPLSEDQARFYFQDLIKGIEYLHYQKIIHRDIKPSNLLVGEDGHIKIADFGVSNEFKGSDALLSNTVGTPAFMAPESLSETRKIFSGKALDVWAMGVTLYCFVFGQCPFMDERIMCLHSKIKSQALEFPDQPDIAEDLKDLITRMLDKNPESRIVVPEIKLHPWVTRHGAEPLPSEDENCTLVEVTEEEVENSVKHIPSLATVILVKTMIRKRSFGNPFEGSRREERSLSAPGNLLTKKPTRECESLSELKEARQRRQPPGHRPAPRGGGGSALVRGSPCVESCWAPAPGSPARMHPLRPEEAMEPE
Sequence of PKBa (P31749 whole entry): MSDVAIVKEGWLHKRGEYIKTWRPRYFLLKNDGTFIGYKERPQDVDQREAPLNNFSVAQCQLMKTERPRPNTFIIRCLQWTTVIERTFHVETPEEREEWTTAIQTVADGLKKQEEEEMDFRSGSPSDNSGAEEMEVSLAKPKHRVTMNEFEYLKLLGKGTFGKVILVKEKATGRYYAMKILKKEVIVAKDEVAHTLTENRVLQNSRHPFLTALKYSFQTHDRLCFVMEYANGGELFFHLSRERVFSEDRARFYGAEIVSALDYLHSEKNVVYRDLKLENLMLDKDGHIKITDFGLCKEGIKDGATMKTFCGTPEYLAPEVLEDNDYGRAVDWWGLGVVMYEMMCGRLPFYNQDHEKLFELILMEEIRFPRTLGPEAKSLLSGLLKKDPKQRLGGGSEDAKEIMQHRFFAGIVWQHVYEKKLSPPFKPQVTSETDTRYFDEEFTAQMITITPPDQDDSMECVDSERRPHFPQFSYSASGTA
Sequence of MSK1 (O75582 whole entry, species assumed): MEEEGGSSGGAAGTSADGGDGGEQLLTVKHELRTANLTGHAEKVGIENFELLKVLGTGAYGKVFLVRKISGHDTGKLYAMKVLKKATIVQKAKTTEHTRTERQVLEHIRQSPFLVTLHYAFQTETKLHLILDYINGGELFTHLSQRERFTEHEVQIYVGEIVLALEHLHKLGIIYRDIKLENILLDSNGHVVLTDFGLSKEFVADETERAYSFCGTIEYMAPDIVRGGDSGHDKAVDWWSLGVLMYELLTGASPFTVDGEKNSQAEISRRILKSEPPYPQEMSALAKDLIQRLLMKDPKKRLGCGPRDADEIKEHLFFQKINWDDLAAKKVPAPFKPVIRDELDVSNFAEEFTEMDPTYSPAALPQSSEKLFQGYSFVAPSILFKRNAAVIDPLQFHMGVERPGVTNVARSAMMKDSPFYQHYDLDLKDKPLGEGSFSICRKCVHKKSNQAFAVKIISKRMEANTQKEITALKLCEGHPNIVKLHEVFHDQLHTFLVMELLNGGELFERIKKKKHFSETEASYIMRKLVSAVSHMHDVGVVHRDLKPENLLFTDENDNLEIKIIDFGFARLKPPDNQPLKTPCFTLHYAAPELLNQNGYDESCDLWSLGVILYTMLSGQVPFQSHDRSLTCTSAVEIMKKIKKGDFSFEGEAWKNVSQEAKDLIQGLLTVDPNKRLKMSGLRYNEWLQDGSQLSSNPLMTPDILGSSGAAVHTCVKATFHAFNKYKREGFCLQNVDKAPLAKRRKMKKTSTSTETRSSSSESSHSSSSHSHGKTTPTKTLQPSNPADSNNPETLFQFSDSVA
Sequence of STK33 (Q9BYT3 whole entry, species assumed): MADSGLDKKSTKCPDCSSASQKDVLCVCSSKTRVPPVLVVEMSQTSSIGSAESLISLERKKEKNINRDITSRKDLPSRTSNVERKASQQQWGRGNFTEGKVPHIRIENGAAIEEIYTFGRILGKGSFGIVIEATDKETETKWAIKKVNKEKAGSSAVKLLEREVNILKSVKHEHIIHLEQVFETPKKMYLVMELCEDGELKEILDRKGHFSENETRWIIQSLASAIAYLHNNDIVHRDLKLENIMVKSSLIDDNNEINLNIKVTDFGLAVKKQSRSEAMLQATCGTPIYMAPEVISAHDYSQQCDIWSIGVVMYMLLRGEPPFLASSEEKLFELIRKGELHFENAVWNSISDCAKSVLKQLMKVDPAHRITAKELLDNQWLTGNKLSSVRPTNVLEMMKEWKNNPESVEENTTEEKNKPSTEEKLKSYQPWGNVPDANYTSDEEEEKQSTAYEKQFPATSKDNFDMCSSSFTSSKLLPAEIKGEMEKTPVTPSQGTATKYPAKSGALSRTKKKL
Sequence of SRPK1 (Q96SB4 whole entry, species assumed): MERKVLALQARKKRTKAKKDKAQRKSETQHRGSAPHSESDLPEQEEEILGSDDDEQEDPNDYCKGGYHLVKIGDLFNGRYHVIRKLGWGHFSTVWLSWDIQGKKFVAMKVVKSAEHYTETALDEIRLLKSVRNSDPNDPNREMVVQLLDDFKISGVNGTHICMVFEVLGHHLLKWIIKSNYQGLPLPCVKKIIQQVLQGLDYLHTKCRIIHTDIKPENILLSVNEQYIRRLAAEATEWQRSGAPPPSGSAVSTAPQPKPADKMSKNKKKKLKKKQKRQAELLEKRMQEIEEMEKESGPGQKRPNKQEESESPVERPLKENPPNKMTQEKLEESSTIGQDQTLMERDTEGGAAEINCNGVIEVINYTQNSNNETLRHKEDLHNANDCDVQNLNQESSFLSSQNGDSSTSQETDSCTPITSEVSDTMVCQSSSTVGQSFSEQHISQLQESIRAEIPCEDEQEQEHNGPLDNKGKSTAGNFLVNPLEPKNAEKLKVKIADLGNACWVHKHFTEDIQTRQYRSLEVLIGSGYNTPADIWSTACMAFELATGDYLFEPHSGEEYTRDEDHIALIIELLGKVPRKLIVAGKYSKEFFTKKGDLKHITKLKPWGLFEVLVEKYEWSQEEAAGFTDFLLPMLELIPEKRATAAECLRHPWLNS

Row | Structure (SMILES) | remaining activity at 100 µM [1] [%] | remaining activity at 100 µM [4, 12] [%] | remaining activity at 100 µM [5, 12] [%] | remaining activity at 100 µM [6, 12] [%] | remaining activity at 100 µM [7, 12] [%] | remaining activity at 100 µM [8, 12] [%] | remaining activity at 100 µM [9, 12] [%] | remaining activity at 100 µM [10, 12] [%] | remaining activity at 100 µM [11, 12] [%] | residual kinase activity, PKBa [1, 12] | residual kinase activity, PKCγ [2, 12] | residual kinase activity, STK33 [3, 12] | further results
1 | CC(=O)Nc1nc2cc(O)ccc2s1 [Compound 01-66, N-(5-hydroxybenzo[d]thiazol-2-yl)acetamide] | 87 |  |  |  |  |  |  |  |  |  |  |  | remaining activity at 100 µM [2]: 99%; remaining activity at 100 µM [3]: 52%; remaining activity at 100 µM [4]: 62%; remaining activity at 100 µM [5]: 44%; remaining activity at 100 µM [6]: 38%; remaining activity at 100 µM [7]: 60%; remaining activity at 100 µM [8]: 59%; remaining activity at 100 µM [9]: 76%; remaining activity at 100 µM [10]: 69%; remaining activity at 100 µM [11]: 82%
2 | CC(=O)Nc1nc2ccc(O)cc2s1 [Compound 01-71] | 87 | 31 | 57 | 17 | 43 | 44 | 75 | 56 | 71 |  |  |  | remaining activity at 100 µM [2, 12]: 76%; remaining activity at 100 µM [3, 12]: 41%
3 | CC(=O)Nc1nc2ccc(C(F)(F)F)cc2s1 [Compound 01-90] | 104 | 87 | 29 | 79 | 83 | 41 | 103 | 99 | 100 |  |  |  | remaining activity at 100 µM [2, 12]: 53%; remaining activity at 100 µM [3, 12]: 46%
4 | CC(=O)Nc1nc2ccc(C#N)cc2s1 [Compound 01-94] | 95 | 81 | 35 | 35 | 41 | 47 | 98 | 56 | 86 |  |  |  | remaining activity at 100 µM [2, 12]: 83%; remaining activity at 100 µM [3, 12]: 35%
5 | CC(=O)Nc1cccc(C(=O)Nc2nc3ccc(O)cc3s2)c1 [Compound 03-58] |  |  |  |  |  |  |  |  |  | 92 | 86 | 45 | 
6 | CC(=O)NC(C)C(=O)Nc1nc2ccc(C(F)(F)F)cc2s1 (centres unmarked) [Compound 03-80] |  |  |  |  |  |  |  |  |  | 105 | 87 | 60 | 
7 | CC(=O)Nc1ccccc1C(=O)Nc1nc2ccc(O)cc2s1 [Compound 08-39] |  |  |  |  |  |  |  |  |  | 84 | 44 | 61 | 
8 | CC(=O)Nc1nc2ccc([N+](=O)[O-])cc2s1 [Compound 13-10] | 101 | 92 | 73 | 73 | 89 | 62 | 95 | 97 | 97 |  |  |  | 
9 | COc1cccc(NC(=O)Nc2nc3cc(O)ccc3s2)c1 [Compound 13-62] |  |  |  |  |  |  |  |  |  |  |  |  | residual kinase activity, PKBa [1, 13]: 66; residual kinase activity, MSK1 [4, 13]: 41; residual kinase activity, CAMKKb [5, 13]: 25; residual kinase activity, LKB1 [6, 13]: 91; residual kinase activity, TBK1 [7, 13]: 48; residual kinase activity, SRPK1 [8, 13]: 3; residual kinase activity, EF2K [9, 13]: 85; residual kinase activity, MST2 [10, 13]: 3; residual kinase activity, SYK [11, 13]: 59
10 | COc1ccc2sc(NC(=O)c3ccc(NC(C)=O)cc3)nc2c1 [MS:LY-2-77] |  |  |  |  |  |  |  |  |  | 89 | 94 | 99 | 
11 | COc1ccc2sc(NC(=O)c3cccc(NC(C)=O)c3)nc2c1 [MS:LY-2-85] |  |  |  |  |  |  |  |  |  | 90 | 80 | 75 | 
12 | CC(=O)Nc1ccc(C(=O)Nc2nc3cc(O)ccc3s2)cc1 [MS:LY-2-87] |  |  |  |  |  |  |  |  |  | 86 | 74 | 51 | 
13 | CC(=O)Nc1cccc(C(=O)Nc2nc3cc(O)ccc3s2)c1 [MS:LY-2-89] |  |  |  |  |  |  |  |  |  | 82 | 63 | 37 | 
